Like-named read-outs stand apart in the source and are kept apart here. Some results are limits rather than exact numbers.

We go through five molecules from US20090275727A1, “Peptide turn mimetics” (MIMETICA PTY LIMITED, priority 1998, published 2009).

In data set [1] the target is T1, Galanin GAL2 (Homo sapiens, UniProt O43603).
T1 construct: expressed in transfected cells; host or cells: CHO-K1
T1 sequence (O43603 1-387): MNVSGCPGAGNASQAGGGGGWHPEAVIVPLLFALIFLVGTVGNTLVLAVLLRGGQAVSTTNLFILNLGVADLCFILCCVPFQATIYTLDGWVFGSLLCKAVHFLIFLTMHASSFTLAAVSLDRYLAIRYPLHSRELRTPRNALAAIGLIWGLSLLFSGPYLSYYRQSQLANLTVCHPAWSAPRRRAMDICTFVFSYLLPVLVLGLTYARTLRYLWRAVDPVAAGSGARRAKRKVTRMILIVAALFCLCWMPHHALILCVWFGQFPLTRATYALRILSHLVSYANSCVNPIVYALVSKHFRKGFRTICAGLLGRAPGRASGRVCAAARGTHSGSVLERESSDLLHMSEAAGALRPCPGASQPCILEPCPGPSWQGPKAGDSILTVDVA
Nature of the data set: Galanin radioligand binding competitive assay, GAL2 (125I galanin human, recombinant CHO-K1 cells). The conditions noted are these: 0.02 nM 125I Galanin (human); for inhibition at 0.1 µM: 100 nM peptide, read-out: GAL2 % inhib at 100 nM; for inhibition at 1 µM: 1 1000 nM peptide (so in the source), read-out: GAL2 % inhib at 1 1000 nM. How it is done: (§1) Galanin(1-16) Linear Reference Peptide 231, Galanin(1-16) Analog Incorporating (R)-Helix Pentapeptide Mimetic A 232a and Galanin(1-16) Analog Incorporating (S)-Helix Pentapeptide Mimetic A 232b were tested for binding affinity to the Galanin-1 and Galanin-2 receptors using a radioligand binding competitive assay (Heuillet E, Bouaiche Z, Menager J, Dugay P, Munoz N, Dubois H, Amiranoff B, Crespo A, Lavayre J, Blanchard J C, Doble A; Eur J. Pharmacol., 1994, 269, 139-147. Bloomquist B T, Beauchamp M R, Zhelnin L, Brown S E, Biochem Biophys Res Comm., 1998, 243, 474-479.) Human recombinant HEK-293 cells were used as the source of Galanin GAL1, and samples tested against competitive binding with 0.012 nM ^125I Galanin (porcine). DMSO was used as the vehicle, and the incubation buffer consisted of 10 mM HEPES-NaOH, pH 7.4, 1 mM EDTA, 0.5% BSA, 0.01% Bacitracin. Human recombinant CHO-K1 cells were used as the source of Galanin GAL2, and samples tested against competitive binding with 0.02 nM ^125I Galanin (human).

Data set [2] is described as follows: Rat plasma stability of galanin peptides (LC/MS). Format: in vitro ADME. The conditions noted are these: for remaining at 4 h, 500 ng/mL / remaining at 2 min, 500 ng/mL: male, Sprague Dawley. Here is the method: Rat plasma was obtained freshly from male Sprague Dawley rats. The stock solutions for the samples Galanin(1-16) Linear Reference Peptide 231, Galanin(1-16) Analog Incorporating (R)-Helix Pentapeptide Mimetic A 232a and Galanin(1-16) Analog Incorporating (S)-Helix Pentapeptide Mimetic A 232b were prepared in 1:1 v:v acetonitrile/water at a concentration of 1 mg/mL. This stock solution was further diluted using 1:1 v:v acetonitrile/water to give a spiking solution with a nominal concentration of 50 μg/mL. For each compound, an aliquot (1485 μL) of rat plasma (maintained at 37° C.) was spiked with 15 μL of the spiking stock to give a nominal plasma concentration of 500 ng/mL. […] Samples were quenched by snap freezing in dry-ice. The concentration of the parent compound (Gal 231, Gal R 232a, Gal S 232b) was determined by LC/MS on a Micromass Quattro Premier triple-quadrupole instrument. The percentage of the parent compound remaining at each time point was calculated relative to the concentrations observed in the spiking control samples.

In data set [3] the target is T2, Galanin GAL1 (Homo sapiens, UniProt P47211).
T2 construct: expressed in transfected cells; host or cells: HEK-293
T2 sequence (P47211 1-349): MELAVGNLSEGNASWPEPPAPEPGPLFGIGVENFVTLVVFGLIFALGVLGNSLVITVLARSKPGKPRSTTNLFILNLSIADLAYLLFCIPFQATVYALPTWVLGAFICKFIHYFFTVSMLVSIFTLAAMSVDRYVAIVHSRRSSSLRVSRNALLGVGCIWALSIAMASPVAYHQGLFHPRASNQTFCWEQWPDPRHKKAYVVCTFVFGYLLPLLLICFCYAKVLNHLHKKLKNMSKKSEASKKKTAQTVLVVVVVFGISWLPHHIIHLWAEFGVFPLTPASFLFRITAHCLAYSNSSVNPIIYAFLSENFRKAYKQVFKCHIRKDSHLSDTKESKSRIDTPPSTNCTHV
Nature of the data set: Galanin radioligand binding competitive assay, GAL1 (125I galanin porcine, recombinant HEK-293 cells). Conditions: 0.012 nM 125I Galanin (porcine), human recombinant HEK-293; for inhibition at 0.01 µM: 10 nM peptide, read-out: GAL1 % inhib at 10 nM; for inhibition at 0.1 µM: 100 nM peptide, read-out: GAL1 % inhib at 100 nM. How it is done: as §1

Data set [4] can be described thus: Variable temperature CD, thermal denaturation of secondary structure. It counts as physicochemical. Here is the method: CD experiments were performed on a Jasco Model J-810 spectropolarimeter, which was routinely calibrated with (1S)-(+)-10-camphorsulfonic acid at a concentration of 0.06% (w/v). Experiments were performed at 25° C. using a 0.1 cm cell, a scan speed of 10 nm/min from 260 to 180 nm, with a resolution of 1 nm and a response time of 0.25 s. The spectra were averaged over 5 scans, baseline subtracted from the corresponding blank conditions, and smoothed using the Savitsky-Golay smoothing algorithm (Savitsky, A. and Golay, M. J. E., 1964, Anal. Chem, 36, 1627-1639) to reduce noise. The samples were dissolved in 10 mM phosphate buffer, measured as pH 7.4, and when required the appropriate volume of TFE was added to adjust to 30% TFE. The concentration of the samples of peptides incorporating Helix Mimetic A (galanin 1-16 analogs) were determined using the Beer-Lambert Law by measuring the absorbance of the samples at 280 nm and using a molar extinction co-efficient of ε280=6620 M^−1cm^−1 (ε280 of Galanin 1-30, contains same number of Trp and Tyr as Galanin 1-16). The concentration of the samples of peptides incorporating Helix Mimetic B (Temporin A analogs) samples and the pentapeptide 13-membered ring Helix Mimetic A and B samples were determined by quantitative RP-HPLC against a standard of known concentration. All samples were between 40-200 μM, and CD spectra were recorded at a range of concentrations to check that sample aggregation was not occurring. Raw CD data was recorded in raw ellipticity units and converted to mean ellipticity per mole using the equation [θ]=θ/(10×c×l), where c is the sample concentration (M) and l is the cell path length (cm). Data was not converted to mean peptide molar ellipticity per residue as for compounds containing the covalent ethyl-bridge hydrogen bond replacement it is unclear how many “natural” peptide units to count in these calculations. Variable temperature CD experiments were carried using a CDF-426/L Peltier type CD/Fluorescence simultaneous measurement attachment, and samples were equilibrated for 10 min once the desired temperature was reached.
CD spectroscopy (as outlined in Example K) was conducted on the Galanin(1-16) reference linear peptide 231 and the Galanin(1-16) helix mimetics 232a and 232b in 10 mM phosphate buffer (pH 7.4) and in 10 mM phosphate buffer with 30% TFE added (see FIG. 8). […] The CD spectra of […] in both buffer and buffer with TFE. […] Further CD experiments examined the thermal denaturation secondary structure stability of Gal(1-16) 231 and (S)-Gal(1-16) helix mimetic 232b were investigated by thermal denaturation experiments (FIG. 9). […]

[5] abbreviates: pH 7.4, 30% TFE in phosphate buffer, 5-75° C.

Turning to `CC(C)C[C@H](NC(=O)[C@H](CC(C)C)NC(=O)[C@H](Cc1ccc(O)cc1)NC(=O)CNC(=O)[C@H](C)NC(=O)[C@H](CO)NC(=O)[C@H](CC(N)=O)NC(=O)[C@H](CC(C)C)NC(=O)[C@@H](NC(=O)[C@H](Cc1c[nH]c2ccccc12)NC(=O)CN)[C@@H](C)O)C(=O)NCC(=O)N1CCC[C@H]1C(=O)N[C@@H](CC1C=NC=N1)C(=O)N[C@@H](C)C(=O)N[C@H](C(N)=O)C(C)C` (some centres unmarked) [Gal (1-16) 231, GWTLNSAGYLLGPHAV-NH2, reference compound], in data set [1], the inhibition at 0.1 µM came to 92% and the inhibition at 1 µM is 101%. Moreover, in data set [2] (rat plasma, 4° C., 240 min, read-out: % Compound remaining at 4° C.), the amount remaining at 4 h, 500 ng/mL is 6.2%. Also, the share remaining at 2 min, 500 ng/mL in data set [2] (rat plasma, 37° C., 2 min, nominal 500 ng/mL, read-out: % Compound remaining at 37° C.) stood at 30.2%. For the same molecule, in data set [3], the inhibition at 0.01 µM stood at 85% and the inhibition at 0.1 µM is 96%. Moreover, the “Thermal stability of secondary structure (variable temperature CD)” value (shortened to “Thermal stability of secondary structure”) in data set [4] (setting [5]) is “decreased peptide secondary structure with increased temperature”.
Regarding `CC[C@H](C)[C@H](NC(=O)[C@H](CC(C)C)NC(=O)C1CCCN1C(=O)[C@H](CC(C)C)NC(=O)[C@@H](N)Cc1ccccc1)C(=O)NCC(=O)N[C@@H](CCCNC(=N)N)C(=O)NC[C@@H]1CCN([C@@H](CC(C)C)C(=O)N[C@@H](CC(C)C)C(N)=O)C(=O)CNC(=O)[C@H](CO)NC(=O)[C@H](CC(C)C)N1` (some centres unmarked) [Compound 235b], in data set [4] (pH 7.4), the “Thermal stability of secondary structure” value is “remarkable thermal stability”.
For the molecule `CC(C)C[C@@H]1NC(=O)[C@H](Cc2ccc(O)cc2)N[C@H](CNC(=O)[C@H](C)NC(=O)[C@H](CO)NC(=O)[C@H](CC(N)=O)NC(=O)[C@H](CC(C)C)NC(=O)[C@@H](NC(=O)[C@H](Cc2c[nH]c3ccccc23)NC(=O)CN)[C@@H](C)O)CCN(CC(=O)N2CCC[C@H]2C(=O)N[C@@H](CC2C=NC=N2)C(=O)N[C@@H](C)C(=O)N[C@H](C(N)=O)C(C)C)C(=O)[C@H](CC(C)C)NC1=O` (some centres unmarked) [Gal S 232b], in data set [1], the inhibition at 0.1 µM is 2% and the inhibition at 1 µM came out at 6%. Further, in data set [2], the “Time after spiking until concentration is below the limit of quantitation” value is on record as at most 30 min. In addition, in data set [2] (rat, plasma), the amount remaining at 2 min, 500 ng/mL is 44.8% and the share remaining at 4 h, 500 ng/mL worked out at 31.3%. Also, the “Percent remaining at end of 240 min incubation compared with 10 (linear Gal(1-16))” value in data set [2] (rat, plasma, 4 h) is reported as “significantly higher”. Besides, in data set [3], the inhibition at 0.01 µM was determined as 2% and the inhibition at 0.1 µM was determined as 18%. In data set [4] (pH 7.4), the “Thermal stability of secondary structure” value is on record as “excellent structural stability at elevated temperatures”.
For the molecule `CC[C@H](C)[C@H](NC(=O)[C@H](CC(C)C)NC(=O)C1CCCN1C(=O)[C@H](CC(C)C)NC(=O)[C@@H](N)Cc1ccccc1)C(=O)NCC(=O)N[C@@H](CCCNC(=N)N)C(=O)NCC(=O)N[C@@H](CC(C)C)C(=O)N[C@@H](CO)C(=O)NCC(=O)N[C@@H](CC(C)C)C(=O)N[C@@H](CC(C)C)C(N)=O` (some centres unmarked) [Compound 234, FLPLIGRGLSGLL-NH2, reference compound], the “Thermal stability of secondary structure” value in data set [4] (setting [5]) is “increase in 222 nm absorbance as temperature increases, indicative of the helix unwinding”.
Take `CC(C)C[C@@H]1NC(=O)[C@H](Cc2ccc(O)cc2)N[C@@H](CNC(=O)[C@H](C)NC(=O)[C@H](CO)NC(=O)[C@H](CC(N)=O)NC(=O)[C@H](CC(C)C)NC(=O)[C@@H](NC(=O)[C@H](Cc2c[nH]c3ccccc23)NC(=O)CN)[C@@H](C)O)CCN(CC(=O)N2CCC[C@H]2C(=O)N[C@@H](CC2C=NC=N2)C(=O)N[C@@H](C)C(=O)N[C@H](C(N)=O)C(C)C)C(=O)[C@H](CC(C)C)NC1=O` (some centres unmarked) [Gal R 232a]: in data set [1], the inhibition at 0.1 µM amounted to 6% and the inhibition at 1 µM was determined as 36%. Besides, the “Time after spiking until concentration is below the limit of quantitation” value in data set [2] is at most 30 min. In data set [2] (rat, plasma), this molecule came in with a fraction remaining at 2 min, 500 ng/mL of 50%. For the same molecule, in data set [2] (rat, plasma, 4 h), the “% Compound remaining at 4° C.” value turned out to be 31.3% and the “Percent remaining at end of 240 min incubation compared with 10 (linear Gal(1-16))” value is given as “significantly higher”. Further, in data set [3], the inhibition at 0.01 µM was determined as 8% and the inhibition at 0.1 µM was 37%.
